According to US20120316199A1, “COMPOSITIONS AND METHODS FOR TREATING, CONTROLLING, REDUCING, OR AMELIORATING INFLAMMATORY PAIN” (priority 2011, published 2012):
Where “and” joins values, the source holds several entries; their conditions need not be identical. Equal entries are not always repeated.

Legend:
[1] = test system: visual acuity; assay: Clinical study after cataract surgery: Snellen visual acuity (safety); assay type: in vivo, human; details: overall
Source text: (§1) There were 8 treatment groups in this study, consisting of three drug doses, vehicle and three dosing frequencies (see also Table 4-1): • Group A: 1% BOL-303242-X ophthalmic suspension, two times per day (BID) • Group B: 2% BOL-303242-X ophthalmic suspension, one time per day (QD) • Group C: 2% BOL-303242-X ophthalmic suspension, BID • Group D: 2% BOL-303242-X ophthalmic suspension, four times per day (QID) • Group E: 3% BOL-303242-X ophthalmic suspension, QD • Group F: 3% BOL-303242-X ophthalmic suspension, BID • Group G: 3% BOL-303242-X ophthalmic suspension, QID • Group H: Vehicle for BOL-303242-X (divided equally into QID, BID, and QD)
Visit 1 (screening), Visit 2 (cataract surgery), Visit 3 (postoperative Day 1), Visit 4 (postoperative Day 3±1 day), Visit 5 (postoperative Day 8±1 day), Visit 6 (postoperative Day 15±1 day), Visit 7 (postoperative Day 18±1 day). Subject assessments included adverse events (AEs), concomitant medications, ocular symptoms, pinholed Snellen visual acuity (VA), intraocular pressure (IOP), ocular signs (biomicroscopy), fundoscopy, and study drug drop sensation. In addition, subject diaries were collected and reviewed for accuracy and treatment compliance.
Safety: The safety endpoints in this study were: incidence of AEs, change in IOP, ocular signs (biomicroscopy), Snellen VA, fundoscopy, study drug drop sensation assessment.

[2] = test system: MPO activity in iris-ciliary body; assay: Myeloperoxidase (MPO) activity in iris-ciliary body, rabbit paracentesis model; assay type: in vivo, Rabbit (New Zealand); details: for MPO activity in iris-ciliary body: individual samples collected after the second paracentesis, listed as BOL; for MPO activity in iris-ciliary body, Mean: after the second paracentesis, group mean
Method: (§2) Each rabbit was placed in a restraint device and tagged with the alphanumeric code. The formulations were instilled (50 μl) into the conjunctival sac of both eyes 180, 120, 90 and 30 min before the first paracentesis; then 15, 30, 90 min after the first paracentesis. To perform the first paracentesis the animals were anaesthetized by intravenous injection of 5 mg/kg Zoletil® (Virbac; 2.5 mg/kg tiletamine HCl and 2.5 mg/kg zolazepam HCl) and one drop of local anesthetic (Novesina®, Novartis) was administered to the eye. Anterior chamber paracentesis was performed with a 26 G needle attached to a tuberculin syringe; the needle was introduced into the anterior chamber through the cornea, taking care not to damage the tissues. Two hours after the first paracentesis, the animals were sacrificed with 0.4 ml Tanax® (Intervet International B.V.) and the second paracentesis was performed. About 100 μl of aqueous humor were removed at the second paracentesis. Aqueous humor was immediately split in four aliquots and stored at −80° C. until analysis. Then both eyes were enucleated and the iris-ciliary body was carefully excised, placed in polypropylene tubes, and stored at −80° C. until analysis.
The activity of MPO was measured as previously described by Williams et al.[5] The iris-ciliary bodies were carefully dried, weighed and immersed in 1 ml of hexa-decyl-trimethyl-ammonium bromide solution. Then, the samples were sonicated for 10 sec on ice by a ultrasound homogenizer (HD 2070, Bandelin electronic), freeze-thawed three times, sonicated for 10 sec and centrifuged at 14,000 g for 10 min to remove cellular debris. An aliquot of the supernatant (40-200 μl) was diluted to 3 ml with the o-dianisidine 2HCl/H2O2 solution. The change in absorbance at 460 nm was continuously monitored for 5 min by a spectrophotometer (UV/Vis Spectrometer Lambda EZ 201; Perkin Elmer). The slope of the line (Δ/min) was determined for each sample and used to calculate the number of units of MPO in the tissue as follows:
Values were expressed as units of MPO/g of tissue.
(§3) Pupillary diameter, PGE2, protein, PMN, and MPO were expressed as mean±SEM. Statistical analysis was performed using one way ANOVA followed by a Newman-Keuls post hoc test. Clinical score was expressed as % of eyes and the statistical analysis was performed using Kruskal-Wallis followed by a Dunn post hoc test. P<0.05 was considered statistically significant in both cases. Prism 4 software (GraphPad Software, Inc.) was used for the analysis and graphs.

[3] = test system: PGE2 release by IL-1β-induced human conjunctival fibroblasts (HConF); assay: IL-1β-induced PGE2 release in human conjunctival fibroblasts (ELISA); assay type: cell-based; details: 3, 10, 30, 100, 300, 1000 nM, 18 hours; ELISA (FIG. 6)
Method: Human conjunctival fibroblasts (HConF) were seeded in 24-well plates in complete Fibroblast Medium (FM) which contained 2% fetal bovine serum (FBS) and Fibroblast Growth Supplement (FGS). After reaching confluence (about 95%), cells were conditioned in basic FM that had been supplemented with 0.5% charcoal-dextran treated fetal bovine serum (CD-FBS) and without Fibroblast Growth Supplement (FGS) for 24 hours. […] Plates were performed in triplicate. Culture media were evaluated for PGE, release by ELISA.

[4] = test system: anterior chamber cells and flare following cataract surgery; assay: Clinical study after cataract surgery: resolution of anterior chamber (AC) cells and flare; assay type: in vivo, human; details: 2% QID, 3% QD, 3% BID, and 3% QID
Source text: as §1
Subjects self-administered study drug, instilling 1 to 2 drops of study drug into the study eye: QID at approximately 4 hour intervals, BID at approximately 12 hour intervals, or QD once in the morning, for 14 days. The initial dose occurred in the clinic at Visit 3 and the final dose was on the day before Visit 6 (postoperative Day 15±1 day). Subjects were examined and evaluated according to the following schedule:
Visit 1 (screening), Visit 2 (cataract surgery), Visit 3 (postoperative Day 1), Visit 4 (postoperative Day 3±1 day), Visit 5 (postoperative Day 8±1 day), Visit 6 (postoperative Day 15±1 day), Visit 7 (postoperative Day 18±1 day). […]

[5] = test system: leukocytes (PMN) in aqueous humor; assay: Leukocytes (PMN) measurement in aqueous humor, rabbit paracentesis model; assay type: in vivo, Rabbit (New Zealand); details: second paracentesis, group mean
Method: as §2
For the determination of the number of leukocytes we used a haernocytometer (Improved Neubauer Chamber; Bright-line, Hausser Scientific) and a Polyvar 2 microscope (Reichert-Jung).
as §3

Cc1ccc2c(NC[C@](O)(CC(C)(C)c3cc(F)cc4c3OCC4)C(F)(F)F)cccc2n1 [BOL-303242-X, mapracorat]
subjects whose VA did not decline by two lines or more [1]: more than 92%
MPO activity in iris-ciliary body ([2]; 0.1% BOL): 1.04 Unit/g and 1.14 Unit/g and 1.06 Unit/g and 1.22 Unit/g and 1.05 Unit/g
MPO activity in iris-ciliary body, Mean ([2]; 0.1% formulation): 0.971 MPO Unit/g
MPO activity in iris-ciliary body ([2]; 0.5% BOL): 1.03 Unit/g
MPO activity in iris-ciliary body, Mean ([2]; 0.5% formulation): 0.775 MPO Unit/g
MPO activity in iris-ciliary body ([2]; 1% BOL): 1.02 Unit/g
MPO activity in iris-ciliary body, Mean ([2]; 1% formulation): 0.542 MPO Unit/g
Inhibition of PGE2 production by IL-1β-induced HConF [3]: successfully inhibits
improvements in AC cells and Grade 0 pain at Visit 5 (postoperative Day 8) [4]: statistically significant improvements
PMN numbers in aqueous humor, Mean ([5]; 0.1% formulation): 28.333 number/μl
PMN numbers in aqueous humor, Mean ([5]; 0.5% formulation): 21.250 number/μl
PMN numbers in aqueous humor, Mean ([5]; 1% formulation): 28.750 number/μl
